# Assay results from article PMC3057096 (Bioorganic & medicinal chemistry, 2010).
# Columns and labels:
# [1] = test system: methicillin-resistant Staphylococcus aureus ATCC 43300 (MRSA); assay: In vitro antibacterial susceptibility testing; type: cell-based; settings: ATCC43300|MRSA, read-out: MRSA MIC, NA = no activity at highest test concentration of 20 μg/mL
# [2] = test system: P. falciparum (W2); type: cell-based; settings: Plasmodium falciparum, W2, read-out: P. falciparum (W2) IC50
# [3] = test system: P. berghei (sensitive strain); assay: In vivo blood-schizontocidal antimalarial activity, rodent malaria model; set-up: species or system mice; settings: for P. berghei: mice cured: dose of 25 mg/kg
# [4] = test system: P. falciparum (D6); type: cell-based; settings: Plasmodium falciparum, D6, read-out: P. falciparum (D6) IC50
# [5] = test system: Staphylococcus aureus; assay: In vitro antibacterial susceptibility testing; type: cell-based; settings: read-out: S. aureus IC50, 50% growth inhibition
# [6] = test system: β-hematin (BH) formation; assay: Inhibition of β-hematin; type: biochemical; settings: read-out: BH inhibition IC50
# [7] = cited from earlier work
# [8] = rodents; cited from earlier work
smiles,measurement,setting,value
"COc1cc(NC(C)CCCNC(=S)NCCCC(C)Nc2cc(OC)cc3cccnc23)c2ncccc2c1.Cl.Cl (centres unmarked) [Compound 67, 1,3-Bis{4-[(6-methoxyquinolin-8-yl)amino]pentyl}thiourea·2HCl]",MIC,[1],5 to 20 µg/mL
"COc1cc(NC(C)CCCNC(=O)NCCCC(C)Nc2cc(OC)cc3ccc(C(C)(C)C)nc23)c2nc(C(C)(C)C)ccc2c1.Cl.Cl (centres unmarked) [Compound 68, 1,3-Bis{4-[(2-tert-butyl-6-methoxyquinolin-8-yl)amino]pentyl}urea·2HCl]",IC50,[2],3.7 µg/mL
same,P. berghei in vivo activity class,"[3]; 100 mg/kg/day × 4, oral",Inactive
"COc1cc(NC(C)CCCNC(=O)N[C@@H](CCCNC(=N)N)C(=O)NCCCC(C)Nc2cc(OC)cc3cccnc23)c2ncccc2c1.Cl (stereo partly drawn) [Compound 36, N-{4-[(6-methoxyquinolin-8-yl)amino]pentyl}-N^2-({4-[(6-methoxyquinolin-8-yl)-amino]pentyl}carbamoyl)-D-argininamide·3HCl]",IC50,[2],1.8 µg/mL
same,P. berghei in vivo activity class,"[3]; 50 mg/kg/day × 4, oral",Inactive
same,P. berghei in vivo activity class,"[3]; 100 mg/kg/day × 4, oral",Curative
same,IC50,[4],3.2 µg/mL
"COc1cc(NC(C)CCCNC(=O)N[C@@H](CCCN)C(=O)NCCCC(C)Nc2cc(OC)cc3cccnc23)c2ncccc2c1.Cl (stereo partly drawn) [Compound 37, N-{4-[(6-methoxyquinolin-8-yl)amino]pentyl}-N^2-({4-[(6-methoxyquinolin-8-yl)-amino]pentyl}carbamoyl)-D-ornithinamide·3HCl]",P. berghei in vivo activity class,"[3]; 100 mg/kg/day × 4, oral",Inactive
"COc1cc(NC(C)CCCNC(=O)CC[C@H](N)C(=O)NCCCC(C)Nc2cc(OC)cc3ccc(C(C)(C)C)nc23)c2nc(C(C)(C)C)ccc2c1.Cl (stereo partly drawn) [Compound 63, N^1,N^5-Bis{4-[(2-tert-butyl-6-methoxyquinolin-8-yl)amino]pentyl}-L-glutamamide·3HCl]",P. berghei in vivo activity class,"[3]; 100 mg/kg/day × 4, oral",Inactive
"COc1cc(NC(C)CCCNC(=O)C[C@@H](N)C(=O)NCCCC(C)Nc2cc(OC)cc3cccnc23)c2ncccc2c1.Cl (stereo partly drawn) [Compound 64, N^1,N^4-Bis{4-[(6-methoxyquinolin-8-yl)amino]pentyl}-D-aspartamide·3HCl]",IC50,[2],3.6 µg/mL
"CCCCCOc1c(OC)cc(NC(C)CCCNC(=S)NCCCC(C)Nc2cc(OC)c(OCCCCC)c3c(CC)ccnc23)c2nccc(CC)c12.Cl.Cl (centres unmarked) [Compound 71, 1,3-Bis{4-[4-ethyl-6-methoxy-5-(pentyloxy)quinolin-8-ylamino]pentyl}-thiourea·2HCl]",MIC,[1],5 to 20 µg/mL
"COc1cc(NC(C)CCCNC(=O)CC[C@H](N)C(=O)NCCCC(C)Nc2cc(OC)cc3cccnc23)c2ncccc2c1.Cl (stereo partly drawn) [Compound 61, N^1,N^5-Bis{4-[(6-methoxyquinolin-8-yl)amino]pentyl}-L-glutamamide·3HCl]",IC50,[2],2.2 µg/mL
same,P. berghei in vivo activity class,"[3]; 10 mg/kg/day × 4, oral",Suppressive
same,P. berghei in vivo activity class,"[3]; 25 mg/kg/day × 4, oral",Curative
same,P. berghei in vivo activity class,"[3]; 50 mg/kg/day × 4, oral",Curative
same,P. berghei in vivo activity class,"[3]; 100 mg/kg/day × 4, oral",Curative
same,P. berghei: mice cured,[3],100%
same,IC50,[4],2.7 µg/mL
"COc1cc(NC(C)CCCNC(=O)NCCCC(C)Nc2cc(OC)cc3cccnc23)c2ncccc2c1.Cl.Cl (centres unmarked) [Compound 66, 1,3-Bis{4-[(6-methoxyquinolin-8-yl)amino]pentyl}urea·2HCl]",P. berghei in vivo activity class,"[3]; 100 mg/kg/day × 4, oral",Inactive
"COc1cc(NC(C)CCCNC(=O)C[C@H](N)C(=O)NCCCC(C)Nc2cc(OC)cc3ccc(C(C)(C)C)nc23)c2nc(C(C)(C)C)ccc2c1.Cl (stereo partly drawn) [Compound 62, N^1,N^4-Bis{4-[(2-tert-butyl-6-methoxyquinolin-8-yl)amino]pentyl}-L-aspartamide·3HCl]",IC50,[2],3.2 µg/mL
same,P. berghei in vivo activity class,"[3]; 100 mg/kg/day × 4, oral",Inactive
"COc1cc(NC(C)CCCNC(=O)c2cncc(C(=O)NCCCC(C)Nc3cc(OC)cc4ccc(C(C)(C)C)nc34)c2)c2nc(C(C)(C)C)ccc2c1.Cl (centres unmarked) [Compound 85, N,N′-Bis{4-[(2-tert-butyl-6-methoxyquinolin-8-yl)amino]pentyl}pyridine-3,5-dicarboxamide·3HCl]",IC50,[2],1.8 µg/mL
same,IC50,[4],2.7 µg/mL
"COc1cc(NC(C)CCCNC(=O)NC(=O)NCCCC(C)Nc2cc(OC)cc3cccnc23)c2ncccc2c1.Cl.Cl (centres unmarked) [Compound 74, N,N′-Bis{4-[(6-methoxyquinolin-8-yl)amino]pentyl}dicarbonimidic diamide·2HCl]",P. berghei in vivo activity class,"[3]; 100 mg/kg/day × 4, oral",Inactive
"COc1cc(NC(C)CCCNC(=O)N[C@H](CCCCN)C(=O)NCCCC(C)Nc2cc(OC)cc3ccc(C(C)(C)C)nc23)c2nc(C(C)(C)C)ccc2c1.Cl (stereo partly drawn) [Compound 43, N-{4-[(2-tert-butyl-6-methoxyquinolin-8-yl)amino]pentyl}-N^2-({4-[(2-tert-butyl-6methoxyquinolin-8-yl)amino]pentyl}carbamoyl)-L-lysinamide·3HCl]",IC50,[5],1.78 to 2.73 µg/mL
same,P. berghei in vivo activity class,"[3]; 100 mg/kg/day × 4, oral",Suppressive
same,IC50,[4],1.6 µg/mL
"COc1cc(NC(C)CCCNCOC(=O)NCCCC(C)Nc2cc(OC)cc3cccnc23)c2ncccc2c1.Cl.Cl (centres unmarked) [Compound 76, ({4-[(6-Methoxyquinolin-8-yl)amino]pentyl}amino)methyl{4-[(6-methoxy-quinolin-8-yl)amino]pentyl}carbamate·2HCl]",P. berghei in vivo activity class,"[3]; 100 mg/kg/day × 4, oral",Suppressive
"COc1cc(NC(C)CCCNC(=O)N[C@@H](CCCN)C(=O)NCCCC(C)Nc2cc(OC)cc3ccc(C(C)(C)C)nc23)c2nc(C(C)(C)C)ccc2c1.Cl (stereo partly drawn) [Compound 42, N-{4-[(2-tert-butyl-6-methoxyquinolin-8-yl)amino]pentyl}-N^2-({4-[(2-tert-butyl-6methoxyquinolin-8-yl)amino]pentyl}carbamoyl)-D-ornithinamide·3HCl]",IC50,[2],3.2 µg/mL
"COc1cc(NC(C)CCCNCCNCCNCCCC(C)Nc2cc(OC)cc3cccnc23)c2ncccc2c1.Cl.Cl (centres unmarked) [Compound 79, N^1,N^1′-(iminodiethane-2,1-diyl)bis[N^4-(6-methoxyquinolin-8-yl)pentane-1,4-diamine]·2HCl]",P. berghei in vivo activity class,"[3]; 10 mg/kg/day × 4, oral",Suppressive
same,P. berghei in vivo activity class,"[3]; 25 mg/kg/day × 4, oral",Curative
same,P. berghei in vivo activity class,"[3]; 50 mg/kg/day × 4, oral",Curative
same,P. berghei in vivo activity class,"[3]; 100 mg/kg/day × 4, oral",Curative
same,P. berghei: mice cured,[3],100%
"COc1cc(NC(C)CCCN)c2ncccc2c1 (centres unmarked) [PQ, primaquine]",IC50,[6],> 1000 µM
same,half life,[7],4 to 6 h
same,time at which two major metabolites start appearing in the blood,[8],about 30 min
"COc1cc(NC(C)CCCNC(=O)N[C@H](CCCCN)C(=O)NCCCC(C)Nc2cc(OC)cc3cccnc23)c2ncccc2c1.Cl (stereo partly drawn) [Compound 38, N-{4-[(6-methoxyquinolin-8-yl)amino]pentyl}-N^2-({4-[(6-methoxyquinolin-8-yl)-amino]pentyl}carbamoyl)-L-lysinamide·3HCl]",IC50,[4],3.6 µg/mL
